Patent US20120277161A1, “INHIBITION OF MULTIPLE CELL ACTIVATION PATHWAYS” (INTER-K PTY LIMITED, priority 2009, published 2012)

Key:
PI3K gamma = PI3K gamma (Homo sapiens, UniProt P48736); experiment: PI3K HTRF activity assay; assay type: biochemical; conditions: final concentration 50 μM
human Yes = human Yes (Homo sapiens, UniProt P07947); experiment: Yes kinase activity assay; assay type: biochemical; conditions: 20 μM
Procedure: In a final reaction volume of 25 μl, human Yes is incubated with the RSKAKNPLYR peptide (SEQ ID No: 6) in 8 mM MOPS buffer pH 7.0, 0.2 mM EDTA, 0.1 mg/ml poly(Glu,Tyr) 4:1, 10 mM Mg acetate and [γ-33P-ATP] (specific activity approx. 500 cpm/pmol). The reaction is initiated by the addition of the MgATP mix, incubated for 40 minutes at room temperature prior to being stopped and kinase activity assessed by scintillation counting again as per the protocol described for c-Src in Example 1.1.

[1] = system: MCF-7 breast cancer cells; experiment: MTT growth/proliferation, MCF-7 cells; assay type: cell-based; conditions: 48 hours
Procedure: (§1) In this study, the cells were incubated in the presence of the dendrimer for 48 hours. Cell lines were maintained at 37° C. in a humid atmosphere containing 5% CO2. Cells were passaged at pre-confluent densities using a solution containing 0.05% trypsin and 0.5 mM EDTA (Invitrogen).

HL60 leukemic cells = experiment: MTT proliferation, HL60 cells; assay type: cell-based; conditions: MTT assay, data not shown; read-out: IC50 inhibition of proliferation of HL60 leukemic cells
[2] = system: HT-29 human colon cancer cells; experiment: Apoptosis assay (FITC Annexin V / PI, FACS); assay type: cell-based; conditions: 10 μM, 4 hours; FIG. 11
Procedure: The cells were harvested by trypsinisation, washed twice in HBSS and counted counted using Trypan Blue staining. The cells were then re-suspended in the appropriate culture medium to a concentration of 1×10^6 cells/mL. […] The cells were allowed to attach to the plate for 1 h. […] Cells were then harvested by trypsinisation, washed twice in cold phosphate buffered saline (PBS) and then resuspended in 1× binding buffer. 100 μL of the cell suspensions containing 1×10^5 cells were transferred to a 5 mL plastic tube. […] Three controls were also analysed: unstained cells, cells stained only with Annexin V and cells stained only with PI. The data was presented as the percentage of cells being either Annexin V positive only (excluding PI positive cells), PI positive (total) or Annexin V and PI positive (double stain).

mTOR = mTOR (Homo sapiens, UniProt P42345); experiment: mTOR activity; assay type: biochemical; conditions: 20 μM, data not shown
PKB alpha = PKB alpha (Homo sapiens, UniProt P31749); experiment: PKB kinase activity assay; assay type: biochemical; conditions: 20 μM, relative to control
Procedure: (§2) In a final reaction volume of 25 μL, PKB(h) (5-10 mU) is incubated with 8 mM MOPS pH 7.0, 0.2 mM EDTA, 30 μM GRPRTSSFAEGKK (SEQ ID No. 26), 10 mM MgAcetate and [γ-33P-ATP] (specific activity approx. 500 cpm/pmol, concentration as required). The reaction is initiated by the addition of the MgATP mix. After incubation for 40 minutes at room temperature, the reaction is stopped by the addition of 5 μL of a 3% phosphoric acid solution. 10 μL of the reaction mixture is then spotted onto a P30 filtermat and washed three times for 5 minutes in 75 mM phosphoric acid and once in methanol prior to drying and scintillation counting.

[3] = system: DU145 prostate cancer cells; experiment: MTT growth/proliferation, DU145 cells; assay type: cell-based; conditions: 48 hours
Procedure: as §1

[4] = system: MKN45 gastric carcinoma cells; experiment: MTT growth/proliferation, MKN45 cells; assay type: cell-based; conditions: 48 hours
Procedure: as §1

kinases listed Table 2 = experiment: Kinase dose response study (kinases listed Table 2); assay type: biochemical; conditions: range over all kinases of Table 2; read-out: IC50 percentage inhibition of activity for all the kinases
Procedure: In a dose response study, the inhibition of the activity of the kinases listed Table 2 at increasing concentrations of dendrimer Dend 10-10(4)DP (see Example 2.3) was assessed employing the treatment protocols described in Examples 1 to 3. As shown in the table, inhibition of kinase activity was obtained by the dendrimer at all the concentrations tested. The IC50 percentage inhibition of activity for all the kinases was in the range of from 0.25-2.0 μM. The results shown in Table 2 are percentage inhibition relative to controls. Comparative dose results for 1 μM dendrimer Dend 10-10(4) are also shown.

c-SRC (h) = c-SRC (h) (Homo sapiens, UniProt P12931); experiment: c-Src kinase activity assay (cell-free, 33P-ATP); assay type: biochemical
Procedure: as §2, with “μL, c-SRC (h)” for “μL, PKB(h)”, “EDTA, 250” for “EDTA, 30”, “μM KVEKIGEGTYGVVYK” for “μM GRPRTSSFAEGKK”, “No. 19) (Cdc2 peptide),” for “No. 26),”, “reaction” for “reaction mixture”

FAK = FAK (Homo sapiens, UniProt Q05397); experiment: FAK activity; assay type: biochemical; conditions: 20 μM, data not shown
Sequence of FAK (Q05397 whole entry, species assumed): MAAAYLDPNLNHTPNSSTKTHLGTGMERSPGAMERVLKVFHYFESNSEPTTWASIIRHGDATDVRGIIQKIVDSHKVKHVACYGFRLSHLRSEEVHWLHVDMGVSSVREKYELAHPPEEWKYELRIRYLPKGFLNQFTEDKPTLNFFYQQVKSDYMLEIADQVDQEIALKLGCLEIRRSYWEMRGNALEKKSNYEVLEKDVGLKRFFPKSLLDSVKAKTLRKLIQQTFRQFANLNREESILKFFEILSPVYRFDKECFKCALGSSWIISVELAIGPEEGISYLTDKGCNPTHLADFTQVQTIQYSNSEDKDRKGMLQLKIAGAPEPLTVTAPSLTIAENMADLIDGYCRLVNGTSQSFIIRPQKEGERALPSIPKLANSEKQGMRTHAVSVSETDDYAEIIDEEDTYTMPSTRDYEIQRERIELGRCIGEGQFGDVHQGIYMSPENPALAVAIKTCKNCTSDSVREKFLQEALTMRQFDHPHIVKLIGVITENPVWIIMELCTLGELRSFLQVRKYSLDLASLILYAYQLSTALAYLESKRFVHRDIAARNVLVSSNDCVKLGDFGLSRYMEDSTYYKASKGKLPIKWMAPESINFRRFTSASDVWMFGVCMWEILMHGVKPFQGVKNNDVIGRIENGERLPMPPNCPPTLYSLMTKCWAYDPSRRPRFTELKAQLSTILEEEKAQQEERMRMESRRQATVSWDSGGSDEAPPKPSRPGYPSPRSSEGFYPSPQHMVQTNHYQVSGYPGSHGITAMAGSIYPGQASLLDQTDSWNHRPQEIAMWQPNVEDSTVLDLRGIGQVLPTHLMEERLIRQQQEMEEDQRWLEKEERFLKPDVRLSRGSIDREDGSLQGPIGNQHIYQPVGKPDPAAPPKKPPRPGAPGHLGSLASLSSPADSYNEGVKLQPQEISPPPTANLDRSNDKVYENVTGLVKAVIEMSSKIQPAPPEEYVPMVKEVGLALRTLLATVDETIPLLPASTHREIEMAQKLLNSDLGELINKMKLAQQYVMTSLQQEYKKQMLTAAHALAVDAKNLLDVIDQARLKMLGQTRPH

Sequence of PI3K gamma (P48736 whole entry, species assumed): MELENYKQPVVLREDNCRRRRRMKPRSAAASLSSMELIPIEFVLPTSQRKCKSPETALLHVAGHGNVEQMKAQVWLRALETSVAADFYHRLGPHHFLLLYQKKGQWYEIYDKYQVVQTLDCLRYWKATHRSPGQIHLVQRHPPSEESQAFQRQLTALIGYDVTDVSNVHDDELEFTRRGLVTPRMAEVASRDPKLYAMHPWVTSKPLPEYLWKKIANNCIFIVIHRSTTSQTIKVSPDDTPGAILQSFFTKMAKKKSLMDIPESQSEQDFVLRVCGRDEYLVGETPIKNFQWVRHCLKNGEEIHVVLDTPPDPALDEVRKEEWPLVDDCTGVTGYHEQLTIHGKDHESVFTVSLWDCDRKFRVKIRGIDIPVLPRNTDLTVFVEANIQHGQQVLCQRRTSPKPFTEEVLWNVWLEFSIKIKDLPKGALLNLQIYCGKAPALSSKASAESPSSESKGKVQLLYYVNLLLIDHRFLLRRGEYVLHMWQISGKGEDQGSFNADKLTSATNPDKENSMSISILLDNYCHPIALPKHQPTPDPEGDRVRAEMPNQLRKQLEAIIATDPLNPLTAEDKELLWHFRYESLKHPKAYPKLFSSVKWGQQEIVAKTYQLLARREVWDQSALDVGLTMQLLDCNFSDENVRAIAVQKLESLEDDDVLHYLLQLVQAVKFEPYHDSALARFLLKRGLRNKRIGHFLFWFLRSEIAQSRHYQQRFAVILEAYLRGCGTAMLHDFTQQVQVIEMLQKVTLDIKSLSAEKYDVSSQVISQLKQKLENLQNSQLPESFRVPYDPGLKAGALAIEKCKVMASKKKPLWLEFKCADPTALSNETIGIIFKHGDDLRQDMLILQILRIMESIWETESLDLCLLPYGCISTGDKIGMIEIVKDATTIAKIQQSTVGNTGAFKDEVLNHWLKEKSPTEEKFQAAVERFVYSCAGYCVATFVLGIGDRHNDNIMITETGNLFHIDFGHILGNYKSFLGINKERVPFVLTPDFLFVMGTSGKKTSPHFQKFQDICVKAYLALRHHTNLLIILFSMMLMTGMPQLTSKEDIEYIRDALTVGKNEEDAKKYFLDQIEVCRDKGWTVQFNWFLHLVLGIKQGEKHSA
Sequence of human Yes (P07947 whole entry): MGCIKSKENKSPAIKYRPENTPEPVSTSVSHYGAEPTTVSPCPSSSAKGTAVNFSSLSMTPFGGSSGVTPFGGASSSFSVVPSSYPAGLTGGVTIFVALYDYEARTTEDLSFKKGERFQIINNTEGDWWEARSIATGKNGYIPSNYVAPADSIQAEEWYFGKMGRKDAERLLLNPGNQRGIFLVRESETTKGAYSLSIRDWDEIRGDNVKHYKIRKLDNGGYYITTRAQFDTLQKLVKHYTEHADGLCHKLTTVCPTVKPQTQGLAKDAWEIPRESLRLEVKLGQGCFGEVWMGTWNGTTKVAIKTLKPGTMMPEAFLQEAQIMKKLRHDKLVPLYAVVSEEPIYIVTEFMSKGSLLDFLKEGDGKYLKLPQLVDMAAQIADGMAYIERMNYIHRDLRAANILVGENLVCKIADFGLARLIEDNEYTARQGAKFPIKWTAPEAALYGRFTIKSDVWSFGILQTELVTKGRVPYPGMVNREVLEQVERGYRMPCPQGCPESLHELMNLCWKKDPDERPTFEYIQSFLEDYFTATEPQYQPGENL
Sequence of PKB alpha (P31749 whole entry): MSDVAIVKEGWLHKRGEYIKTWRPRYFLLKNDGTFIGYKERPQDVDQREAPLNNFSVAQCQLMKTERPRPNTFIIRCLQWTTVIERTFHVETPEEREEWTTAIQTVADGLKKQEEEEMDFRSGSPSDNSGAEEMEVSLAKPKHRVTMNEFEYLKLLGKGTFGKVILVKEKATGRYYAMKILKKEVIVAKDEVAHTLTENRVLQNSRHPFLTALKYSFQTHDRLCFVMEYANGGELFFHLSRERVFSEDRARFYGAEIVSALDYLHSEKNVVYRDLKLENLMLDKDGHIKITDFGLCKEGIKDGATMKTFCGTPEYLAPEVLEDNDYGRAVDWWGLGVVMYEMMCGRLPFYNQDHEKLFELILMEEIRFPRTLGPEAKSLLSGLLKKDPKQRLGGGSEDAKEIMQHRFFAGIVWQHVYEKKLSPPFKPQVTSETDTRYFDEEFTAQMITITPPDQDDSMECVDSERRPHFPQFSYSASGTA

CC(C)C[C@H](NC(=O)[C@@H]1CCCN1C(=O)[C@H](CC(N)=O)NC(=O)[C@H](CCCCN)NC(=O)[C@H](C)NC(=O)[C@H](CCCCN)NC(=O)[C@H](CO)NC(=O)[C@@H](N)CCCNC(=N)N)C(=O)N[C@@H](Cc1ccc(O)cc1)C(=O)N[C@@H](CCCNC(=N)N)C(=O)NCCCC[C@H](NC(=O)[C@H](CCCCNC(=O)[C@H](CCCCNC(=O)[C@H](CCCNC(=N)N)NC(=O)[C@H](Cc1ccc(O)cc1)NC(=O)[C@H](CC(C)C)NC(=O)[C@@H]1CCCN1C(=O)[C@H](CC(N)=O)NC(=O)[C@H](CCCCN)NC(=O)[C@H](C)NC(=O)[C@H](CCCCN)NC(=O)[C@H](CO)NC(=O)[C@@H](N)CCCNC(=N)N)NC(=O)[C@H](CCCNC(=N)N)NC(=O)[C@H](Cc1ccc(O)cc1)NC(=O)[C@H](CC(C)C)NC(=O)[C@@H]1CCCN1C(=O)[C@H](CC(N)=O)NC(=O)[C@H](CCCCN)NC(=O)[C@H](C)NC(=O)[C@H](CCCCN)NC(=O)[C@H](CO)NC(=O)[C@@H](N)CCCNC(=N)N)NC(=O)[C@H](CCCCNC(=O)[C@H](CCCNC(=N)N)NC(=O)[C@H](Cc1ccc(O)cc1)NC(=O)[C@H](CC(C)C)NC(=O)[C@@H]1CCCN1C(=O)[C@H](CC(N)=O)NC(=O)[C@H](CCCCN)NC(=O)[C@H](C)NC(=O)[C@H](CCCCN)NC(=O)[C@H](CO)NC(=O)[C@@H](N)CCCNC(=N)N)NC(=O)[C@H](CCCNC(=N)N)NC(=O)[C@H](Cc1ccc(O)cc1)NC(=O)[C@H](CC(C)C)NC(=O)[C@@H]1CCCN1C(=O)[C@H](CC(N)=O)NC(=O)[C@H](CCCCN)NC(=O)[C@H](C)NC(=O)[C@H](CCCCN)NC(=O)[C@H](CO)NC(=O)[C@@H](N)CCCNC(=N)N)C(=O)NCCCC[C@H](NC(=O)[C@H](CCCCNC(=O)[C@H](CCCNC(=N)N)NC(=O)[C@H](Cc1ccc(O)cc1)NC(=O)[C@H](CC(C)C)NC(=O)[C@@H]1CCCN1C(=O)[C@H](CC(N)=O)NC(=O)[C@H](CCCCN)NC(=O)[C@H](C)NC(=O)[C@H](CCCCN)NC(=O)[C@H](CO)NC(=O)[C@@H](N)CCCNC(=N)N)NC(=O)[C@H](CCCCNC(=O)[C@H](CCCCNC(=O)[C@H](CCCNC(=N)N)NC(=O)[C@H](Cc1ccc(O)cc1)NC(=O)[C@H](CC(C)C)NC(=O)[C@@H]1CCCN1C(=O)[C@H](CC(N)=O)NC(=O)[C@H](CCCCN)NC(=O)[C@H](C)NC(=O)[C@H](CCCCN)NC(=O)[C@H](CO)NC(=O)[C@@H](N)CCCNC(=N)N)NC(=O)[C@H](CCCNC(=N)N)NC(=O)[C@H](Cc1ccc(O)cc1)NC(=O)[C@H](CC(C)C)NC(=O)[C@@H]1CCCN1C(=O)[C@H](CC(N)=O)NC(=O)[C@H](CCCCN)NC(=O)[C@H](C)NC(=O)[C@H](CCCCN)NC(=O)[C@H](CO)NC(=O)[C@@H](N)CCCNC(=N)N)NC(=O)[C@H](CCCCNC(=O)[C@H](CCCNC(=N)N)NC(=O)[C@H](Cc1ccc(O)cc1)NC(=O)[C@H](CC(C)C)NC(=O)[C@@H]1CCCN1C(=O)[C@H](CC(N)=O)NC(=O)[C@H](CCCCN)NC(=O)[C@H](C)NC(=O)[C@H](CCCCN)NC(=O)[C@H](CO)NC(=O)[C@@H](N)CCCNC(=N)N)NC(=O)[C@H](CCCNC(=N)N)NC(=O)[C@H](Cc1ccc(O)cc1)NC(=O)[C@H](CC(C)C)NC(=O)[C@@H]1CCCN1C(=O)[C@H](CC(N)=O)NC(=O)[C@H](CCCCN)NC(=O)[C@H](C)NC(=O)[C@H](CCCCN)NC(=O)[C@H](CO)NC(=O)[C@@H](N)CCCNC(=N)N)C(=O)NCCC(N)=O [Dend 10-10(4)]
PIK3 gamma % activity relative to control (PI3K gamma): 11%

Dend 10-10(4) whose RSKAKNPLYR peptides are entirely D-amino acids and pegylated with two ethylene glycol units [Dend 10-10(4)DP]
inhibition of the activity of c-Yes relative to controls (human Yes): 99%
inhibition of growth/proliferation of MCF-7 cells [1]: inhibited growth/proliferation
IC50 (HL60 leukemic cells): 2 µM
apoptosis in HT-29 cells [2]: substantial level of apoptosis
effect on activity of mTOR (mTOR): without any effect
% Kinase inhibition PKB alpha (PKB alpha): 29%
inhibition of growth/proliferation of DU145 cells [3]: inhibited growth/proliferation
inhibition of growth/proliferation of MKN45 cells [4]: inhibited growth/proliferation
IC50 (kinases listed Table 2): 0.25 to 2 µM
inhibition of c-Src activity compared to peptide RSKAKNPLYR alone (c-SRC (h)): no increase in the inhibition of c-Src activity
effect on activity of FAK (FAK): without any effect
